Measurements: patent publication US7186695B2 (priority 2001, dated 2007)

What was measured:
Thioredoxin [1] = target: T1, Thioredoxin (Homo sapiens, UniProt P10599); assay: Inhibition of thioredoxin-mediated reduction of 70 kDa fibronectin fragment; assay type: biochemical; conditions: 1 μM thioredoxin, 10 minutes
T1 construct: purchased American Diagnostica, Greenwich, Conn; host or cells: E. coli
T1 sequence (P10599 1-105): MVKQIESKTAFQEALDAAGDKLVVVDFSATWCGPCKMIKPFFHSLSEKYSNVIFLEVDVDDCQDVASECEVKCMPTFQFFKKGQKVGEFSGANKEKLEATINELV
Method: FIG. 13. Inhibition of thioredoxin by GSAO. Thioredoxin (1 μM) was incubated with GSAO (0, 1 or 10 μM) for 10 minutes at room temperature in 20 mM Hepes, 0.14 M NaCl, pH 7.4 buffer. The 70 kDa fibronectin fragment (10 μg per mL) was added and incubated for 5 minutes at room temperature. The reactions were labelled with MPB (100 μM) for 10 minutes at 37° C. The MPB was quenched with GSH (200 μM) for 10 minutes at 37° C. followed by Iodoacetamide (400 μM) for 10 minutes at room temperature. The MPB-labelled 70 kDa fragment was resolved on 5–15% SDS-PAGE, transferred to PVDF membrane and the MPB detected by blotting with streptavidin peroxidase. The positions of Mr markers are shown at left.
It was observed that thioredoxin reduced one or more protein disulfide bonds in the 70 kDa N-terminal fragment of fibronectin.

Thioredoxin [2] = target: T1, Thioredoxin; assay: Binding of GSAO to thioredoxin active site dithiol, DTNB assay
Method: FIG. 12. Interaction of GSAO with synthetic. Deptide and protein dithiols. DMP (A) (15 μM), 6,8-thioctic acid (B) ([…]), dithiothreitol (C) (8.5 μM), TrpCysGlyProCysLys (D) (4.6 μM), TrpCysGlyHisCysLys (E) (5.5 μM) or thioredoxin (F) (4.1 μM corresponding to 20.6 μM thiols) was incubated with GSAO (0–56 μM) for 10 minutes. DTNB (950 μM) was then added and the reactions incubated for a further 10 minutes. The concentration of thiol in the reactions was determined from the absorbance of the TNB dianion at 412 nm. The solid lines represent the best non-linear least squares fit of the data to Equation 1 (A to E) or Equation 2 (F) and have been drawn using the parameter estimates in Table 1. The dotted line in part A represents a simulated titration assuming an infinite affinity of GSAO for the dithiol. […]
(§1) A stock solution of DMP (5 μL, 50 μmol) was dissolved in DMSO (995 μL), giving a concentration of 50 mM DMP. […] The activity of the arsenical could then be determined by the titration of varying amounts of arsenical against the DMP working solution (10 μL) in a 96-well microbitre plate, with the total volume made up to 195 μL by addition of buffer. […] The absorbance at 412 nm due to the formation of the TNB dianion was measured using a Molecular Devices Thermomax Plus (Palo Alto, Calif.) microplate reader. […]

[3] = Binding of GSAO to dithiols, loss of thiols in DTNB assay
Method: FIG. 11. Titration of DMP or cysteine with GSAO. DMP (15 μM corresponding to 30 μM thiols) is or cysteine (28 μM) was incubated with GSAO (0–50 μM) for 10 minutes. DTNB (950 μM) was then added and the reactions incubated for a further 10 minutes. The concentration of thiol in the reactions was determined from the absorbance of the TNB dianion at 412 nm.
FIG. 12. Interaction of GSAO with synthetic. Deptide and protein dithiols. DMP (A) (15 μM), 6,8-thioctic acid (B) ([…]), dithiothreitol (C) (8.5 μM), TrpCysGlyProCysLys (D) (4.6 μM), TrpCysGlyHisCysLys (E) (5.5 μM) or thioredoxin (F) (4.1 μM corresponding to 20.6 μM thiols) was incubated with GSAO (0–56 μM) for 10 minutes. […] The concentration of thiol in the reactions was determined from the absorbance of the TNB dianion at 412 nm. […]
as §1
Binding of GSAO to dithiols was measured from loss of thiols using the DTNB assay described above. […]

With `NC(CCC(=O)NC(CSCC(=O)Nc1ccc([As]=O)cc1)C(=O)NCC(=O)O)C(=O)O` (stereo not drawn) [GSAO, 4-(N-(S-glutathionylacetyl)amino)-phenylarsenoxide] as the compound, how does the inhibition at 1 µM (Thioredoxin [1]; 1 μM GSAO) read?
Its inhibition at 1 µM is ~50%.

What about the “inhibition of thioredoxin activity” value (Thioredoxin [1]; 10 μM GSAO) of the same compound?
Its value is “completely inhibited”.

And the Kd (Thioredoxin [2])?
The Kd was 370 ± 180 nM.

And the “higher affinity for thioredoxin than for the thioredoxin active site hexapeptide” value (Thioredoxin [2]; thioredoxin vs TrpCysGlyProCysLys)?
Its value is ~4 fold.

And the “interaction of GSAO with DMP in DTNB titration” value ([3]; DMP 15 μM, GSAO 0–50 μM, 10 minutes)?
Its value is “bound to DMP and prevented interaction of the dithiol with DTNB”.

And the Kd ([3]; ring size 5, errors are 1 SD, read-out: Dissociation Constant)?
The Kd was 130 nM.
